These results are taken from patent US8822460B2, “Fused cyclopentyl antagonists of CCR2” (Janssen Pharmaceutica, NV, priority 2012, dated 2014).

One may read the IC50 as the concentration at which inhibition is half-maximal. As usually defined, the EC50 is the concentration that produces a half-maximal response. As usually defined, the solubility is the concentration that dissolves in the medium under given conditions.

The nature of data set [1]: Moisture sorption/desorption analysis. Format: physicochemical. As to conditions: for total hygroscopic weight increase (uptake): up to 90% RH. The method, then: The crystalline phosphate, sulfate and maleate salts of the compound of formula (I-S) were additional tested in DSC, TGA and moisture sorption/desorption. […] The moisture sorption analysis was performed using Hiden Isochema system Model IGAsorp. The sample (˜5 mg) was run in a stainless-steel mesh crucible. […] The moisture profile consisted of 2 cycles of vapor adsorption/desorption.

A further data set has as its target CCR2 (Homo sapiens (Human), UniProt P41597). The data set can be described thus: MCP-1 Receptor Binding Assay in THP-1 Cells. As to conditions: stated as 'believed to have', approximate ('about'). As for the experimental part: Human monocytic cell line THP-1 cells were obtained from American Type Culture Collection (Manassas, Va., USA). […] The cell density was maintained […].
1 μM cold MCP-1 was used for nonspecific binding.

Data set [2] relates to high-fat diet induced obese mice. The data set can be described thus: High-Fat Diet Induced Obesity and Insulin Resistance in Mice.
A further data set concerns hCCR2KI mice. The data set can be described thus: animal or person. In kind it is in vivo, mouse.
Another data set in a line: Solution solubility. As to conditions: thermodynamic from solid.

SMILES strings stand for the structures. “And” between values parts separate entries of the source, which are not always exact repeats. Equal entries are not always repeated. Structures can show the parent of a compound that is named as a salt.

Sequence of CCR2 (P41597 whole entry): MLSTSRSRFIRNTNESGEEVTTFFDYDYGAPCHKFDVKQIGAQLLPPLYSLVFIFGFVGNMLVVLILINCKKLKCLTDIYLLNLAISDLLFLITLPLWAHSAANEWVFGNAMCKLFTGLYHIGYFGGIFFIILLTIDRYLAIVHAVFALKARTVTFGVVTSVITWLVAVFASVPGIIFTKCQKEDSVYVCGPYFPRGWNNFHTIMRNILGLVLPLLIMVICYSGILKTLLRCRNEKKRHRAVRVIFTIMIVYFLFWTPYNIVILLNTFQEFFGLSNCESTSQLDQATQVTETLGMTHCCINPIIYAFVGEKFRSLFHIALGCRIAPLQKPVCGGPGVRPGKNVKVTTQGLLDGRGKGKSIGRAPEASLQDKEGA

With `CO[C@@H]1COCC[C@@H]1N[C@@H]1C[C@H]2OCC[C@@]2(C(=O)N2CCc3ncc(C(F)(F)F)cc3C2)C1` [sulfate salt, ((3aS,5S,6aR)-5-(((3S,4S)-3-methoxytetrahydro-2H-pyran-4-yl)amino)hexahydro-2H-cyclopenta[b]furan-3a-yl)(3-(trifluoromethyl)-7,8-dihydro-1,6-naphthyridin-6(5H)-yl)methanone], in data set [1] (up to 60% RH), the hygroscopic weight increase is recorded as 1.6%. For the same compound, the “total hygroscopic weight increase (uptake)” value in data set [1] amounted to 26.5%.
Regarding `COC1COCCC1N[C@@H]1C[C@H]2OC(CC(C)C)C[C@@]2(C(=O)N2CCc3ncc(C(F)(F)F)cc3C2)C1` (stereo partly drawn) [Example 14, ((3aS,5S,6aR)-2-isobutyl-5-((3-methoxytetrahydro-2H-pyran-4-yl)amino)hexahydro-2H-cyclopenta[b]furan-3a-yl)(3-(trifluoromethyl)-7,8-dihydro-1,6-naphthyridin-6(5H)-yl)methanone], the IC50 on CCR2 was 50 to 100 nM.
Same read-out and setting: the result for `COC1COCCC1N[C@@H]1C[C@H]2OC(c3ccnn3C)C[C@@]2(C(=O)N2CCc3ncc(C(F)(F)F)cc3C2)C1` (stereo partly drawn) [Example 17, ((3aS,5S,6aR)-5-((3-methoxytetrahydro-2H-pyran-4-yl)amino)-2-(1-methyl-1H-pyrazol-5-yl)hexahydro-2H-cyclopenta[b]furan-3a-yl)(3-(trifluoromethyl)-7,8-dihydro-1,6-naphthyridin-6(5H)-yl)methanone] reads 100 to 200 nM; that for `O=C(N1COc2ccc(C(F)(F)F)cc2C1)[C@@]12CCO[C@@H]1C[C@@H](N1CCC(c3ccccc3)CC1)C2` [Example 38, ((3aS,5S,6aR)-5-(4-phenylpiperidin-1-yl)hexahydro-2H-cyclopenta[b]furan-3a-yl)(6-(trifluoromethyl)-2H-benzo[e][1,3]oxazin-3(4H)-yl)methanone], 100 to 200 nM; that for `COC1COCCC1N[C@@H]1C[C@H]2OC(c3nccn3C)C[C@@]2(C(=O)N2CCc3ncc(C(F)(F)F)cc3C2)C1` (stereo partly drawn) [Example 18, ((3 aS,5S,6aR)-5-((3-methoxytetrahydro-2H-pyran-4-yl)amino)-2-(1-methyl-1H-imidazol-2-yl)hexahydro-2H-cyclopenta[b]furan-3a-yl)(3-(trifluoromethyl)-7,8-dihydro-1,6-naphthyridin-6(5H)-yl)methanone], above 200 nM.
On to `CO[C@@H]1COCC[C@@H]1N[C@@H]1C[C@H]2OCC[C@@]2(C(=O)N2CCc3ncc(C(F)(F)F)cc3C2)C1` [phosphate salt, ((3aS,5S,6aR)-5-(((3S,4S)-3-methoxytetrahydro-2H-pyran-4-yl)amino)hexahydro-2H-cyclopenta[b]furan-3a-yl)(3-(trifluoromethyl)-7,8-dihydro-1,6-naphthyridin-6(5H)-yl)methanone], for which the hygroscopic weight increase in data set [1] (up to 60% RH) stood at 3.3%. In data set [1], the “total hygroscopic weight increase (uptake)” value was found to be 69.4%.
On to `CO[C@@H]1COCC[C@@H]1N[C@@H]1C[C@H]2OCC[C@@]2(C(=O)N2CCN(c3cccc(C(F)(F)F)n3)CC2)C1` [Example 24, ((3 aS,5S,6aR)-5-(((3S,4S)-3-methoxytetrahydro-2H-pyran-4-yl)amino)hexahydro-2H-cyclopenta[b]furan-3a-yl)(4-(6-(trifluoromethyl)pyridin-2-yl)piperazin-1-yl)methanone], for which the IC50 on CCR2 was above 200 nM.
For the compound `CO[C@@H]1COCC[C@@H]1N[C@@H]1C[C@H]2OCC[C@@]2(C(=O)N2CCc3ncc(C(F)(F)F)cc3C2)C1.O=C(O)CCC(=O)O` [Example 30, ((3aS,5S,6aR)-5-((3S,4S)-3-methoxytetrahydro-2H-pyran-4-ylamino)hexahydro-2H-cyclopenta[b]furan-3a-yl)(3-(trifluoromethyl)-7,8-dihydro-1,6-naphthyridin-6(5H)-yl)methanone succinate], the “reduction of high fat-diet induced body weight” value in data set [2] (1 mg/kg p.o. bid, after 32-days treatment (p>0.05)) was 4.94%; in data set [2] (3 mg/kg p.o. bid, after 32-days treatment (p<0.01)), 10.94%; in data set [2] (10 mg/kg p.o. bid, after 32-days treatment (p<0.01)), 15.7%. In the data set with hCCR2KI mice (Mus musculus, 0.5 h, read-out: cmax EC50 in plasma), the concentration for a half-maximal effect (EC50) worked out at 97 nM. In addition, in the data set on hCCR2KI mice (mouse, in vivo, succinate), the “inhibition of thioglycollate induced cellular infiltrate” value is 51% and 67% and 95%.
Consider `COc1cccc(C2CCN([C@@H]3C[C@H]4OCC[C@@]4(C(=O)N4CCc5ncc(C(F)(F)F)cc5C4)C3)CC2)c1` [Example 33, ((3aS,5S,6aR)-5-(4-(3-methoxyphenyl)piperidin-1-yl)hexahydro-2H-cyclopenta[b]furan-3a-yl)(3-(trifluoromethyl)-7,8-dihydro-1,6-naphthyridin-6(5H)-yl)methanone], for which, at CCR2, the IC50 was below 50 nM.
On to `CO[C@@H]1COCC[C@@H]1N[C@@H]1C[C@H]2OCC[C@@]2(C(=O)N2CCc3ncc(C(F)(F)F)cc3C2)C1.O=C(O)CCC(=O)O` [((3aS,5S,6aR)-5-(((3S,4S)-3-methoxytetrahydro-2H-pyran-4-yl)amino)hexahydro-2H-cyclopenta[b]furan-3a-yl)(3-(trifluoromethyl)-7,8-dihydro-1,6-naphthyridin-6(5H)-yl)methanone], for which the solubility in the data set “Solution solubility” (0.1N NaOH, aqueous buffer) was above 100 mg/mL; in the data set “Solution solubility” (0.5% methocel, aqueous with cosolvent or surfactant or cyclodextrin), above 100 mg/mL; in “Solution solubility” (20% HpbCD, aqueous with cosolvent or surfactant or cyclodextrin), above 100 mg/mL; in the data set “Solution solubility” (borate buffer, pH 8, aqueous buffer) it was above 100 mg/mL; in “Solution solubility” (borate buffer, pH 10, aqueous buffer), above 100 mg/mL; in the data set “Solution solubility” (citrate buffer, pH 2, aqueous buffer), above 100 mg/mL. In addition, the solubility in “Solution solubility” (citrate buffer, pH 4, aqueous buffer) is above 100 mg/mL; in “Solution solubility” (citrate buffer, pH 6, aqueous buffer), above 100 mg/mL; in the data set “Solution solubility” (simulated gastric fluid) it was above 100 mg/mL; in “Solution solubility” (simulated intestinal fluid, fassgf or other biorelevant), above 100 mg/mL; in the data set “Solution solubility” (water), above 50 mg/mL. For the same compound, the “moisture retained at the end of the desorption phase” value in data set [1] (multiple sorption/desorption cycles, 25° C.) is “about 2.7%”. In data set [1] (up to 70% RH), this compound registered a hygroscopic weight increase of 3.8%. The “total hygroscopic weight increase (uptake)” value in data set [1] came out at 70%.
`CO[C@@H]1COCC[C@@H]1N[C@@H]1C[C@H]2OCC[C@@]2(C(=O)N2CCc3ncc(C(F)(F)F)cc3C2)C1` [maleate salt, ((3aS,5S,6aR)-5-(((3S,4S)-3-methoxytetrahydro-2H-pyran-4-yl)amino)hexahydro-2H-cyclopenta[b]furan-3a-yl)(3-(trifluoromethyl)-7,8-dihydro-1,6-naphthyridin-6(5H)-yl)methanone] came in with a hygroscopic weight increase in data set [1] (up to 70% RH) of 18.3%. Also, the “total hygroscopic weight increase (uptake)” value in data set [1] was determined as 79.9%.
At CCR2, `CN(C)C(=O)c1cccc(C2CCN([C@@H]3C[C@H]4OCC[C@@]4(C(=O)N4COc5ccc(C(F)(F)F)cc5C4)C3)CC2)c1` [Example 39, N,N-dimethyl-3-(1-((3aS,5S,6aR)-3a-(6-(trifluoromethyl)-3,4-dihydro-2H-benzo[e][1,3]oxazine-3-carbonyl)hexahydro-2H-cyclopenta[b]furan-5-yl)piperidin-4-yl)benzamide] had an IC50 below 50 nM.
On CCR2, `COCCOCCOCCOCCCN([C@@H]1C[C@H]2OCC[C@@]2(C(=O)N2CCc3ncc(C(F)(F)F)cc3C2)C1)[C@H]1CCOC[C@H]1OC` [Example 42, ((3aS,5S,6aR)-5-(((3S,4S)-3-methoxytetrahydro-2H-pyran-4-yl)(2,5,8,11-tetraoxatetradecan-14-yl)amino)hexahydro-2H-cyclopenta[b]furan-3a-yl)(3-(trifluoromethyl)-7,8-dihydro-1,6-naphthyridin-6(5H)-yl)methanone] returned a 50% inhibitory concentration (IC50) above 200 nM.
Still for that read-out and setting: the result for `COCCN([C@@H]1C[C@H]2OCC[C@@]2(C(=O)N2CCc3ncc(C(F)(F)F)cc3C2)C1)[C@H]1CCOC[C@H]1OC` [Example 41, ((3aS,5S,6aR)-5-((2-methoxyethyl)((3S,4S)-3-methoxytetrahydro-2H-pyran-4-yl)amino)hexahydro-2H-cyclopenta[b]furan-3a-yl)(3-(trifluoromethyl)-7,8-dihydro-1,6-naphthyridin-6(5H)-yl)methanone] reads above 200 nM; that for `CO[C@@H]1COCC[C@@H]1N[C@@H]1C[C@H]2OCC[C@@]2(C(=O)N2CCN(c3ccnc(C(F)(F)F)n3)CC2)C1` [Example 28, ((3aS,5S,6aR)-5-(((3S,4S)-3-methoxytetrahydro-2H-pyran-4-yl)amino)hexahydro-2H-cyclopenta[b]furan-3a-yl)(4-(2-(trifluoromethyl)pyrimidin-4-yl)piperazin-1-yl)methanone], above 200 nM.
As to `COC1COCCC1N[C@@H]1C[C@H]2OC(C3CCCCC3)C[C@@]2(C(=O)N2CCc3ncc(C(F)(F)F)cc3C2)C1` (stereo partly drawn) [Example 15, ((3aS,5S,6aR)-2-cyclohexyl-5-((3-methoxytetrahydro-2H-pyran-4-yl)amino)hexahydro-2H-cyclopenta[b]furan-3a-yl)(3-(trifluoromethyl)-7,8-dihydro-1,6-naphthyridin-6(5H)-yl)methanone], the IC50 on CCR2 was below 50 nM.
